This note sets out measurements from ChEMBL document CHEMBL1126101, “Synthesis and structure-activity relationships of acetylcholinesterase inhibitors: 1-benzyl-4-(2-phthalimidoethyl)piperidine and related derivatives” (J Med Chem, 1992).

The structures appear in SMILES notation.

The target of one assay is T1, Butyrylcholinesterase (Rattus norvegicus, UniProt Q9JKC1).
T1 sequence (Q9JKC1 whole entry): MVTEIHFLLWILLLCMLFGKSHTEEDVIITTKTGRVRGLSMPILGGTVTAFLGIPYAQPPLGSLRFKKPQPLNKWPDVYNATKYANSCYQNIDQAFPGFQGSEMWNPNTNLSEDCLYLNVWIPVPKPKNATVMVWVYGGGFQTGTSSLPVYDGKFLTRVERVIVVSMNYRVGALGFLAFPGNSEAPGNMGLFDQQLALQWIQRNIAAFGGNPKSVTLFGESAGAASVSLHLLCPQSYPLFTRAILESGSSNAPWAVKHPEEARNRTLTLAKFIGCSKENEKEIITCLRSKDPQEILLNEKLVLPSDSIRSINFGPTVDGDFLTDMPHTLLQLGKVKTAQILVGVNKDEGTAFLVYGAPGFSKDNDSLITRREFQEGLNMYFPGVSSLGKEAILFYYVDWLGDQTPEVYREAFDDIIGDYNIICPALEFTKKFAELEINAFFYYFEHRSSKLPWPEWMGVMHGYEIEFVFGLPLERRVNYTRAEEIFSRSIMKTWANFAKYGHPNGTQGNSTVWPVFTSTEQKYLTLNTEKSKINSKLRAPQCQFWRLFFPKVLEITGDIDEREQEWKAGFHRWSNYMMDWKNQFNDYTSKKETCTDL
Assay: not given
For `O=C(Nc1ccc2c(c1)C(=O)N(CCC1CCN(Cc3ccccc3)CC1)C2=O)c1ccccc1`, half-maximal inhibition (IC50) required 42.3 µM.

Another assay concerns the target T2, Acetylcholinesterase (Mus musculus, UniProt P21836).
T2 sequence (P21836 whole entry): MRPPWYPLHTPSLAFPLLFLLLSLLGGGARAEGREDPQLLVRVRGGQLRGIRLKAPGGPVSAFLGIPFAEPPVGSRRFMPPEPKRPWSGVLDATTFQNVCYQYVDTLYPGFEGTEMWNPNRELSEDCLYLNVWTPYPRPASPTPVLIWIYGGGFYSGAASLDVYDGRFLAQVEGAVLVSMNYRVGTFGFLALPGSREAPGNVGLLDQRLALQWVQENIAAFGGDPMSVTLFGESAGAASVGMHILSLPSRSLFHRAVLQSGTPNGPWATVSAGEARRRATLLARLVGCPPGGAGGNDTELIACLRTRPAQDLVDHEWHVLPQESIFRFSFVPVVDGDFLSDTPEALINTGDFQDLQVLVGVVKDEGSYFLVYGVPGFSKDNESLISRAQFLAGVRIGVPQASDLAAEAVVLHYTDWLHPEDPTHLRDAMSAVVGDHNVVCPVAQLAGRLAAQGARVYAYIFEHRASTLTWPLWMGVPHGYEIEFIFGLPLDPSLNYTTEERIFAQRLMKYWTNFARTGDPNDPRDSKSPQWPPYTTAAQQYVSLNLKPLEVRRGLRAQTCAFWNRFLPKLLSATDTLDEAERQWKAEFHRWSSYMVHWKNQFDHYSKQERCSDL
Description: biochemical.
Description: In vitro inhibitory concentration against acetylcholinesterase (AChE) obtained from mouse brain homogenate.
As to `COc1ccc(CN2CCC(CCN3C(=O)c4ccc([N+](=O)[O-])cc4C3=O)CC2)cc1`, half-maximal inhibition (IC50) required 0.44 µM. Same read-out and setting: with `COc1ccc(N(CCC2CCN(Cc3ccccc3)CC2)C(C)=O)cc1` the figure was 0.7 µM; with `O=C1CCCCN1CCC1CCN(Cc2ccccc2)CC1`, 0.27 µM; with `O=C1c2ccc([N+](=O)[O-])cc2C(=O)N1CCC1CCN(Cc2ccc(Cl)cc2)CC1`, 0.24 µM. On the same count and under the same terms, for `O=C1c2ccc([N+](=O)[O-])cc2C(=O)N1C1CCN(Cc2ccccc2)CC1` the value was 27 µM; for `CNC(=O)Oc1ccc2c(c1)[C@]1(C)CCN(C)[C@@H]1N2C` [PHYSOSTIGMINE], 0.00069 µM; for `O=C(Nc1cccc2c1C(=O)N(CCC1CCN(Cc3ccccc3)CC1)C2=O)c1ccccc1`, 0.34 µM. With `CCC(=O)N(CCC1CCN(Cc2ccccc2)CC1)c1ccccc1`, half-maximal inhibition (IC50) required 0.83 µM. On to `O=C1c2ccc([N+](=O)[O-])cc2C(=O)N1CCC1CCN(Cc2ccccc2)CC1`, for which the IC50 worked out at 0.0125 µM. Same read-out and setting: with `Nc1cccc2c1C(=O)N(CCC1CCN(Cc3ccccc3)CC1)C2=O` the figure was 0.011 µM; with `c1ccc(CN2CCC(CCN3CCc4ccccc4C3)CC2)cc1`, 1.6 µM; with `O=c1c2ccccc2ccn1CCC1CCN(Cc2ccccc2)CC1`, 1.1 µM.

`O=C(C1CCCCC1)N(CCC1CCN(Cc2ccccc2)CC1)c1ccccc1` came in with an IC50 of 9.4 µM. Still for that read-out and setting: for `CN1CCC(CCN2C(=O)c3ccc([N+](=O)[O-])cc3C2=O)CC1` the value was 6.8 µM; for `CC(=O)N(CCC1CCN(Cc2ccccc2)CC1)c1ccncc1`, 0.108 µM. On the same count and under the same terms, for `O=c1c2ccccc2ncn1CCC1CCN(Cc2ccccc2)CC1` the value was 1.2 µM. On the same count and under the same terms, with `COc1ccc(C(=O)N(CCC2CCN(Cc3ccccc3)CC2)c2ccccc2)cc1` the figure was 0.59 µM; with `O=C1c2ccccc2C(=O)N1CCC1CCN(Cc2ccccc2)CC1`, 0.03 µM. `O=C1c2ccc([N+](=O)[O-])cc2C(=O)N1CC1CCN(Cc2ccccc2)CC1` returned an IC50 of 3 µM. On the same count and under the same terms, with `CC(=O)N(C)CCC1CCN(Cc2ccccc2)CC1` the figure was 0.66 µM; with `O=C1c2ccccc2CN1CCC1CCN(Cc2ccccc2)CC1`, 0.098 µM; with `CC(=O)N(CCC1CCN(Cc2ccccc2)CC1)c1cccc(F)c1`, 0.065 µM. The same measure, in the same setting: with `CC(=O)N(CCC1CCN(Cc2ccccc2)CC1)c1ccc(F)cc1` the figure was 0.205 µM; with `O=C(Nc1ccc2c(c1)C(=O)N(CCC1CCN(Cc3ccccc3)CC1)C2=O)c1ccccc1`, 0.0012 µM; with `O=C(c1ccc([N+](=O)[O-])cc1)N(CCC1CCN(Cc2ccccc2)CC1)c1ccccc1`, 0.0054 µM. As for `O=C1Cc2ccccc2C(=O)N1CCC1CCN(Cc2ccccc2)CC1`, half-maximal inhibition (IC50) was put at 0.023 µM. `CN(CCC1CCN(Cc2ccccc2)CC1)C(=O)c1ccc(S(=O)(=O)Cc2ccccc2)cc1`: half-maximal inhibition (IC50) was put at 0.00056 µM.

Consider `COc1cccc(N(CCC2CCN(Cc3ccccc3)CC2)C(C)=O)c1`, for which the IC50 worked out at 0.046 µM.

The target in a further assay is T1, Butyrylcholinesterase. Description: In vitro inhibitory concentration against butyrylcholinesterase (BuChE) obtained from rat plasma. It counts as cell-free.
`CNC(=O)Oc1ccc2c(c1)[C@]1(C)CCN(C)[C@@H]1N2C` [PHYSOSTIGMINE] came in with a 50% inhibitory concentration (IC50) of 0.0081 µM.
